Results reported in US20240360178A1, “MACROCYCLIC IMMUNOMODULATORS” (Bristol-Myers Squibb Company, priority 2021, published 2024).
Positions of bridges follow the written chain, without caps; N, C: chain ends. Non-standard residues stand in square brackets, D forms with d. Residues, ends and D or L forms follow the SMILES beside them. ξ: configuration not given here. Phe(4-CH2NH2) = NCc1ccc(C[C@H](N)C(=O)O)cc1; Bip = N[C@@H](Cc1ccc(-c2ccccc2)cc1)C(=O)O; NMeF = CN[C@@H](Cc1ccccc1)C(=O)O; Thr(3ξ) = CC(O)[C@H](N)C(=O)O; NMeA = CN[C@@H](C)C(=O)O; Orn = NCCC[C@H](N)C(=O)O; Sar = CNCC(=O)O

What follows are molecules tested against T1, human PD-1 (Jurkat-PD-1 cells) / PE-labeled human PD-L1-Ig (Homo sapiens, UniProt Q15116) (assay: Jurkat-PD-1 Cell Binding High-Content Screening Assay (CBA); Jurkat hPD1-PDL1 assay). Details: Jurkat cell line over-expressing human PD-1; PE-labeled PD-L1-Ig 20 nM final; compound incubated 2 hours at 37° C.; read-out: Jurkat HPD1-PDL1 IC50.
T1 construct: expressed in transfected cells; host or cells: Jurkat cell line over-expressing human PD-1
Outline: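 Read-out is high-content imaging of PE fluorescence on PD-1-over-expressing Jurkat cells. Cells are first exposed to compound for 2 hours at 37° C in serum-containing DMEM, after which PE-labeled PD-L1-Ig is added at 20 nM final.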

T1 sequence (Q15116 25-288): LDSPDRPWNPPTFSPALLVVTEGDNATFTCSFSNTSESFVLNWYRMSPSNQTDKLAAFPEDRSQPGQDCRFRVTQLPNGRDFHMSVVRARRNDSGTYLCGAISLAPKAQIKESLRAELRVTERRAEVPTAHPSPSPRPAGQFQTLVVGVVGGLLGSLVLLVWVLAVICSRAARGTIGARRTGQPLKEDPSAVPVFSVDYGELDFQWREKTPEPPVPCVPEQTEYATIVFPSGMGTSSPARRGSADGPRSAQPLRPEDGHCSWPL

Question: With `CC(C)C[C@@H]1NC(=O)[C@H](Cc2c[nH]c3ccccc23)NC(=O)[C@H](CC(=O)O)NC(=O)[C@H](Cc2ccc(O)cc2)NC(=O)[C@H](Cc2ccccc2)NC(=O)CSC[C@@H](C(=O)NCC(N)=O)NC(=O)[C@H](C(C)O)NC(=O)[C@H](C(C)C)NC(=O)[C@H](CC(C)C)NC(=O)[C@H](CC(N)=O)NC(=O)CN(C)C(=O)[C@H](C)N(C)C(=O)[C@H](C(C)C)NC(=O)[C@H](Cc2ccc(-c3ccccc3)cc2)NC1=O` (stereo partly drawn) [Example 1109] ({CH2CO}-FYDWL[Bip]V[NMeA][Sar]NLV[Thr(3ξ)]CG-NH2; thioether N-14) as the molecule, how does the IC50 read?
Answer: 0.35 µM

Question: `CC(C)C[C@@H]1NC(=O)[C@H](Cc2c[nH]c3ccccc23)NC(=O)[C@H](CC(=O)O)NC(=O)[C@H](Cc2ccc(O)cc2)NC(=O)[C@H](Cc2ccccc2)NC(=O)CSC[C@@H](C(=O)N[C@@H](C)C(N)=O)NC(=O)[C@H](CO)NC(=O)[C@H](C(C)C)NC(=O)[C@H](CC(C)C)NC(=O)[C@H](CC(N)=O)NC(=O)[C@H]2CCCN2C(=O)[C@H](CCCN)NC(=O)[C@H](C(C)C)NC(=O)[C@H](Cc2ccc(-c3ccccc3)cc2)NC1=O` [Example 1200] ({CH2CO}-FYDWL[Bip]V[Orn][dP]NLVSCA-NH2; thioether N-14) was tested. Which IC50 did it give?
Answer: 0.03 µM

Question: For `CC(C)C[C@@H]1NC(=O)[C@H](Cc2c[nH]c3ccccc23)NC(=O)[C@H](CC(=O)O)NC(=O)[C@H](Cc2ccc(O)cc2)NC(=O)[C@H](Cc2ccccc2)NC(=O)CSC[C@@H](C(=O)NCC(N)=O)NC(=O)[C@H](C)NC(=O)[C@H](C(C)C)NC(=O)[C@H](CC(C)C)NC(=O)[C@H](CC(N)=O)NC(=O)CN(C)C(=O)[C@H](C)N(C)C(=O)[C@H](C(C)C)NC(=O)[C@H](Cc2ccc(-c3ccccc3)cc2)NC1=O` [Example 1110] ({CH2CO}-FYDWL[Bip]V[NMeA][Sar]NLVACG-NH2; thioether N-14), which IC50 is on record?
Answer: 0.35 µM

Question: How did the IC50 turn out when `CC(C)C[C@@H]1NC(=O)[C@H](Cc2c[nH]c3ccccc23)NC(=O)[C@H](CC(=O)O)NC(=O)[C@H](Cc2ccc(CN)cc2)NC(=O)[C@H](Cc2ccccc2)NC(=O)CSC[C@@H](C(=O)N[C@@H](C)C(N)=O)NC(=O)[C@H](CO)NC(=O)[C@H](C(C)C)NC(=O)[C@H](CC(C)C)NC(=O)[C@H](CC(N)=O)NC(=O)CN(C)C(=O)[C@H](C)N(C)C(=O)[C@H](C(C)C)NC(=O)[C@H](Cc2ccc(-c3ccccc3)cc2)NC1=O` [Example 1101] ({CH2CO}-F[Phe(4-CH2NH2)]DWL[Bip]V[NMeA][Sar]NLVSCA-NH2; thioether N-14) was run?
Answer: 0.3 µM

Question: `CC(C)C[C@@H]1NC(=O)[C@H](CCCNC(=N)N)NC(=O)[C@H](Cc2ccccc2)N(C)C(=O)[C@H](C)N(C)C(=O)[C@H](CCCNC(=N)N)NC(=O)[C@H](Cc2ccc(-c3ccccc3)cc2)NC(=O)[C@H](C(C)C)NC(=O)[C@H](Cc2c[nH]c3ccccc23)NC(=O)[C@H](CC(=O)O)NC(=O)[C@H](Cc2ccc(O)cc2)NC(=O)[C@H](Cc2ccccc2)NC(=O)CSC[C@@H](C(=O)NCC(N)=O)NC(=O)[C@H]([C@@H](C)O)NC(=O)[C@H](C(C)C)NC1=O` [Example 1129] ({CH2CO}-FYDWV[Bip]R[NMeA][NMeF]RLVTCG-NH2; thioether N-14) was tested. Which IC50 did it give?
Answer: 0.5 µM

Question: `CC(C)C[C@@H]1NC(=O)[C@H](Cc2c[nH]c3ccccc23)NC(=O)[C@H](CC(=O)O)NC(=O)[C@H](Cc2ccc(O)cc2)NC(=O)[C@H](Cc2ccc(CN)cc2)NC(=O)CSC[C@@H](C(=O)NCC(N)=O)NC(=O)[C@H](CO)NC(=O)[C@H](C(C)C)NC(=O)[C@H](CC(C)C)NC(=O)[C@H](CC(N)=O)NC(=O)CN(C)C(=O)[C@H](C)N(C)C(=O)[C@H](C(C)C)NC(=O)[C@H](Cc2ccc(-c3ccccc3)cc2)NC1=O` [Example 1160] ({CH2CO}-[Phe(4-CH2NH2)]YDWL[Bip]V[NMeA][Sar]NLVSCG-NH2; thioether N-14) was tested. Which IC50 did it give?
Answer: 0.87 µM
